Among the data in patent US20080318869A1, “Method to Promote Wound Healing” (IMMUNEREGEN BIOSCIENCES, INC., priority 2004, published 2008) are unhealed tail wounds values, retold here.

In the experiment the test system is tail wounds of irradiated mice. The experiment in a line: Healing of tail bite wounds in irradiated mice. The format is in vivo. The conditions noted are these: male mice with tail bite wounds; 7, 8, or 9 Gy 60 Cobalt gamma radiation single acute dose; direct muscle injection 0.5 ml bolus at 2 micromolar; 7 weeks post-radiation exposure; saline controls had unhealed tail wounds. As for the experimental part: The male mice fought while confined with four mice/bin. They sustained extensive tail wounds from biting. We then exposed the mice to either 7, 8, or 9 Gy 60 Cobalt gamma radiation in a single acute dose. [Sar^9,Met(02)^11]-substance P was administered by direct muscle injection in a 0.5 ml bolus at 2 micromolar concentration. Control animals received injections of normal saline.

Take [Sar^9,Met(O2)^11]-substance P: the unhealed tail wounds entry is on record as “did not have any unhealed tail wounds”.
